Assay results from patent US11180615B2, “Cationic polyphosphazene compound, polyphosphazenes-drug conjugate compound and method for preparing same” (CNPHARM CO., LTD., priority 2016, dated 2021).

How the values were obtained:
MCF-7 = assay: In vitro cytotoxicity (SRB method), MCF-7; assay type: cell-based; conditions: MCF-7, mean ± SD, n = 3-4
From the text: (§1) Since the anticancer agent paclitaxel is well known to be clinically very efficacious against many different cancers, breast (MCF-7), ovarian (SK-OV3), non-small cell lung (A549) and stomach (SNU638) cancer cell lines were selected to test their in vitro cytotoxicity according to the literature method (SRB method) (Rita Song, et. al, J. Control. Release 105 (2005) 142-150).

SK-Ov3 = assay: In vitro cytotoxicity (SRB method), SK-Ov3; assay type: cell-based; conditions: SK-Ov3, mean ± SD, n = 3-4
From the text: as §1

A-549 = assay: In vitro cytotoxicity (SRB method), A-549; assay type: cell-based; conditions: A-549, mean ± SD, n = 3-4
From the text: as §1

SNU-638 = assay: In vitro cytotoxicity (SRB method), SNU-638; assay type: cell-based; conditions: SNU-638, mean ± SD, n = 3-4
From the text: as §1

[1] = test system: non-small cell lung cancer cell line A549; conditions: versus Taxotere
[2] = test system: gastric cancer cell line MKN-28; assay: Nude mouse xenograft trial, MKN-28
Experimental: Both tumor size and body weight of each were measured from the beginning of first injection to 40 days.

[3] = Critical micelle concentration by pyrene fluorescence method; assay type: physicochemical; conditions: aqueous pyrene solution 6×10^−7 M
Experimental: As above-mentioned, the polyphosphazene-docetaxel conjugate of the present invention forms polymeric micelles in aqueous solution. In order for such polymer-drug conjugate to be clinically useful for IV injection, the solution stability of the micelles self-assembled from the polymer-drug conjugate is critical. Such a micelle stability is expressed as “critical micelle concentration (CMC),” which is measured by several methods, but the most widely used method is “pyrene fluorescence method” (K. Kalyanasundoram, et. al, J. Am. Chem. Soc. […], 99, 2039). According to the method the CMC value of the polyphosphazene-docetaxel conjugate of the present invention was measured as in the following:
An aqueous pyrene solution (6×10^−7 M) was prepared and using this solution a series of sample solutions of the polyphosphazene-paclitaxel conjugate of Example 20 was prepared in the concentration range of 5.0-0.0005% (w/w). Fluorescence spectra were measured at 339 nm (Iex) and 390 nm (Iem) and then from the ratio of the fluorescence intensities of band I and band III, the value of CMC was determined as shown in FIG. 4.

[4] = Biodegradability in buffer at 37° C. followed by GPC; assay type: physicochemical; conditions: buffer pH 5.4, 37° C.
Experimental: Instrument: Yonglin GPC system
Column: Waters Hydrogel HR column (1×guard, 1×linear, 2×HR2)
Eluent: water/acetonitrile (8:2) (0.5% NaNO3)
Two sample solutions were prepared by dissolving the polyphosphazene-paclitaxel conjugate of Example 20 (250 mg) in a buffer solution (5 ml) at pH=5.4 and in another buffer solution (5 ml) at pH=7.4. The two sample solutions were slowly shaken at 37° C. in a water bath and 500 μl of the sample solution was taken at predetermined schedule (0.5, 1, 2, 4, 6, 8, 16 day after incubation) and freeze-dried. The dried samples were dissolved in tetrahydrofuran involving 0.2% t-butyl ammonium bromide and subjected to gel permeation chromatography (GPC).

## CC(=O)O[C@H]1C(=O)[C@@]2(C)[C@H]([C@H](OC(=O)c3ccccc3)[C@]3(O)C[C@H](OC(=O)[C@H](O)[C@@H](NC(=O)c4ccccc4)c4ccccc4)C(C)=C1C3(C)C)[C@]1(OC(C)=O)CO[C@@H]1C[C@@H]2O [Paclitaxel, reference compound]
MCF-7; Homo sapiens, MCF7
  IC50: 3.47 ± 0.62 nM
SK-Ov3; Homo sapiens, SK-OV-3
  IC50: 15.3 ± 2.6 nM
A-549; Homo sapiens, A549
  IC50: 6.63 ± 2.84 nM
SNU-638; Homo sapiens
  IC50: 10.9 ± 0.9 nM

## [NP(MPEG550)1.5(LysEt-2′-aconitic-docetaxel)0.5]n [Example 14]
[1]
  antitumor activity against A549 tumor: even better antitumor activity than the reference Taxotere
[2]; 10 and 20 mg/kg as docetaxel, day 1, 5, 9, 40 days, versus Taxotere 10 mg/kg
  antitumor activity against MKN-28 gastric tumor: strong antitumor activity equivalent to Taxotere
[2]; judged from body weight, MKN-28 xenograft mice
  systemic toxicity versus Taxotere: lower systemic toxicity

## [NP(MPEG550)1.50(GlyLysEt-2′-succinylpaclitaxel)0.50]n [Example 21]
MCF-7
  IC50: 317 ± 141 nM
SK-Ov3
  IC50: 6960 ± 142 nM
A-549
  IC50: 1540 ± 41.8 nM
SNU-638
  IC50: 5411 ± 46.6 nM

## [NP(MPEG550)1.50(LysEt)0.2(LysEt-2′-succinylpaclitaxel)0.3]n [Example 20]
[3]
  critical micelle concentration (CMC): 41 mg/L
[4]
  degradation of polyphosphazene backbone in acidic media: continuously degradable in acidic media
MCF-7
  IC50: 165 ± 86.5 nM
SK-Ov3
  IC50: 588 ± 47.8 nM
A-549
  IC50: 170 ± 48.3 nM
SNU-638
  IC50: 364 ± 202 nM
